In ChEMBL document CHEMBL5036327, “Systematic Optimization of Potent and Orally Bioavailable Purine Scaffold as a Dual Inhibitor of Toll-Like Receptors 7 and 9” (J Med Chem, 2021):
Values after ≈ are worked out from the molar mass of the structure shown.

How the values were obtained:
[1] = Metabolic stability in mouse liver microsomes assessed as intrinsic clearance incubated for 60 mins by LC-MS/MS analysis
Toll-like receptor 8 = molecular target: T1, Toll-like receptor 8 (Homo sapiens, UniProt Q9NR97); assay: Antagonist activity at human TLR8 expressed in […] cells assessed as inhibition of CL075-induced NFkappaB activation measured after overnight incubation by SEAP-based spectrophotometry assay; assay type: cell-based, HEK293
T1 sequence (Q9NR97 whole entry): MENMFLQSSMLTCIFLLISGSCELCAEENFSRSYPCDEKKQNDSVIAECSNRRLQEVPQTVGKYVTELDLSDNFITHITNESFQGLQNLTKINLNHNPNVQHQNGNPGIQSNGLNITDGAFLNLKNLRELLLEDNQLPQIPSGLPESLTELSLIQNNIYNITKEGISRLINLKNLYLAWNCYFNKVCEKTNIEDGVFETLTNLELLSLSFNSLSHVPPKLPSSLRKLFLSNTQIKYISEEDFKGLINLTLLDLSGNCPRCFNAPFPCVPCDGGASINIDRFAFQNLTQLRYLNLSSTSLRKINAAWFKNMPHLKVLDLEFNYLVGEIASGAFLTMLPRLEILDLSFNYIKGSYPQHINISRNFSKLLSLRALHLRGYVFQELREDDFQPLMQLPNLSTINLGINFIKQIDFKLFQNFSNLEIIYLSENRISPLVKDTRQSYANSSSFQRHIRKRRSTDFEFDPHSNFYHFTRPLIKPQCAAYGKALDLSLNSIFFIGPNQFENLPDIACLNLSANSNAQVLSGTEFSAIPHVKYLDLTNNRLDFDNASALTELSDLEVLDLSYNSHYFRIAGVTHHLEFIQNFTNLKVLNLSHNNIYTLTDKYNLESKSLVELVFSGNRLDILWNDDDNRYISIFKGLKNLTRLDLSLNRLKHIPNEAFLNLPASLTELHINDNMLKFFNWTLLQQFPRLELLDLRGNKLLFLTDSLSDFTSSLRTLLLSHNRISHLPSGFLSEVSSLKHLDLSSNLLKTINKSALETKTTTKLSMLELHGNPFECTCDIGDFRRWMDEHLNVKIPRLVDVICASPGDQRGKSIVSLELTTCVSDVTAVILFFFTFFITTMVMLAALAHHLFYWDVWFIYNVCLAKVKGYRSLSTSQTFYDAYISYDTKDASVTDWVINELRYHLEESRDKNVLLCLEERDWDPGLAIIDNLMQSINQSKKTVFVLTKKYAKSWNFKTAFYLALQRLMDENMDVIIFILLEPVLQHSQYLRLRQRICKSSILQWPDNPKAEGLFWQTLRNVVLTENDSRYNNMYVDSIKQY

[2] = Metabolic stability in human liver microsomes assessed as half life incubated for 60 mins by LC-MS/MS analysis
[3] = Efflux ratio of apparent permeability across apical to basolateral over basolateral to apical side in human Caco2 cells measured after 10 mins by LC-MS/MS analysis; conditions: Caco-2
[4] = Metabolic stability in human liver microsomes assessed as intrinsic clearance incubated for 60 mins by LC-MS/MS analysis
[5] = Metabolic stability in human liver microsomes assessed as compound remaining incubated for 60 mins by LC-MS/MS analysis
[6] = Apparent permeability across apical to basolateral side in human Caco2 cells at 10 uM measured after 10 mins by LC-MS/MS analysis; conditions: Caco-2
[7] = Apparent permeability across basolateral to apical side in human Caco2 cells at 10 uM measured after 10 mins by LC-MS/MS analysis; conditions: Caco-2
physchem = conditions: buffer, pH 7.4
Description: Aqueous solubility of compound at pH 7.4 measured after 18 hrs by UV-spectrometry

Toll-like receptor 7 = molecular target: T2, Toll-like receptor 7 (Homo sapiens, UniProt Q9NYK1); assay: Antagonist activity at human TLR7 expressed in HEK-blue-HTLR7 cells assessed as inhibition of CL264-induced NFkappaB activation measured after overnight incubation by SEAP-based spectrophotometry assay
T2 sequence (Q9NYK1 whole entry): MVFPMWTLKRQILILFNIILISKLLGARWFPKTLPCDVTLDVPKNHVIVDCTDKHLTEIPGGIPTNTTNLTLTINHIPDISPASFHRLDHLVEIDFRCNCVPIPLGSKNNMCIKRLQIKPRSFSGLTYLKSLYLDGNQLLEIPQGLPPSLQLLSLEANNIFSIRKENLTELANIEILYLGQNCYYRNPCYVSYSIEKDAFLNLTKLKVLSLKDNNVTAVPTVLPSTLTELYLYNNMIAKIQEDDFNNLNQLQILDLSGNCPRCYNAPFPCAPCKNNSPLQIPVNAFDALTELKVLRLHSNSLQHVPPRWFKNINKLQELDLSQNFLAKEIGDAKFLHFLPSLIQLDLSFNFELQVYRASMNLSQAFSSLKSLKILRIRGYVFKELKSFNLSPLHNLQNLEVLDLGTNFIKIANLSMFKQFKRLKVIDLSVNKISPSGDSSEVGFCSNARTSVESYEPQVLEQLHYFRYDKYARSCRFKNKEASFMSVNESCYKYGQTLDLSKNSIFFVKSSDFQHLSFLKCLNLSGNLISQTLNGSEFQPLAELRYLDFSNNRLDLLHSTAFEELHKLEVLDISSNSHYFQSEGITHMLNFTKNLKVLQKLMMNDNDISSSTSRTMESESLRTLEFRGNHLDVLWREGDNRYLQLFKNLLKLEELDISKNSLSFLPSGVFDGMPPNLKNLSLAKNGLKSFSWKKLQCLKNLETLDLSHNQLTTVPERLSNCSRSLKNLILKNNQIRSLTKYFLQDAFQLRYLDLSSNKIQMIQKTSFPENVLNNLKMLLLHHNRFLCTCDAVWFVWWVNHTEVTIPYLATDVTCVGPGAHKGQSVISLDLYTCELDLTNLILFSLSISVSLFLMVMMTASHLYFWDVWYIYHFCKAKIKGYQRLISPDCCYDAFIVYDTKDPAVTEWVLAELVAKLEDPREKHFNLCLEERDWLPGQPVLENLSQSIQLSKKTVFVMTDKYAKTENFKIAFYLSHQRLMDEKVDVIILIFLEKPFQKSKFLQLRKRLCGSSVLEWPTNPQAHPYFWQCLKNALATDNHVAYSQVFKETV

[8] = Stability in mouse plasma measured after 2 hrs by LC-MS/MS analysis
[9] = metabolic stability in human liver microsomes assessed as hepatic extraction ratio incubated for 60 mins by LC-MS/MS analysis
[10] = Stability in human plasma measured after 2 hrs by LC-MS/MS analysis
[11] = Metabolic stability in mouse liver microsomes assessed as hepatic extraction ratio incubated for 60 mins by LC-MS/MS analysis

**Q.** With Fc1ccc(CNc2nc(N3CCN(C4CCCC4)CC3)c3ncn(CCCN4CCCC4)c3n2)cc1 as the molecule, how does the microsomal CLint at 1 h [1] read?
**A.** 23.1 µL/min/mg

**Q.** And the IC50 (Toll-like receptor 8)?
**A.** > 30 µM

**Q.** And the half-life at 1 h [2]?
**A.** 17.9 min

**Q.** What about the efflux ratio at 10 min [3] of the same molecule?
**A.** 1.9

**Q.** And the microsomal CLint at 1 h [4]?
**A.** 38.8 µL/min/mg

**Q.** What about the remaining at 1 h [5] of the same molecule?
**A.** 2.9%

**Q.** And the Papp A→B at 10 min, 10 µM [6]?
**A.** 32.7 ×10⁻⁶ cm/s

**Q.** What about the Papp B→A at 10 min, 10 µM [7] of the same molecule?
**A.** 62 ×10⁻⁶ cm/s

**Q.** And the solubility at 18 h (physchem)?
**A.** 28 µg/mL (≈ 55.3 µM)

**Q.** And the IC50 (Toll-like receptor 7)?
**A.** 13.6 µM

**Q.** What about the remaining at 2 h [8] of the same molecule?
**A.** 20%

**Q.** And the hepatic extraction ratio at 1 h [9]?
**A.** 0.642

**Q.** And the remaining at 2 h [10]?
**A.** 75%

**Q.** What about the hepatic extraction ratio at 1 h [11] of the same molecule?
**A.** 0.385
